Publication PMC8519428, “Structural analysis of the boronic acid β-lactamase inhibitor vaborbactam binding to Pseudomonas aeruginosa penicillin-binding protein 3” (PLoS ONE, 2021)

Target: T1, penicillin-binding protein 3 (PBP3) (Pseudomonas aeruginosa, UniProt G3XD46)
T1 construct: gene ftsI; final PBP3 model contains residues 57–190, 213–490, and 501–561
Experiment: X-ray crystal structure ([…] Å, soak); also Bocillin competition assay (IC50) and DSF thermal shift (about […] °C)

T1 sequence (G3XD46 50-579): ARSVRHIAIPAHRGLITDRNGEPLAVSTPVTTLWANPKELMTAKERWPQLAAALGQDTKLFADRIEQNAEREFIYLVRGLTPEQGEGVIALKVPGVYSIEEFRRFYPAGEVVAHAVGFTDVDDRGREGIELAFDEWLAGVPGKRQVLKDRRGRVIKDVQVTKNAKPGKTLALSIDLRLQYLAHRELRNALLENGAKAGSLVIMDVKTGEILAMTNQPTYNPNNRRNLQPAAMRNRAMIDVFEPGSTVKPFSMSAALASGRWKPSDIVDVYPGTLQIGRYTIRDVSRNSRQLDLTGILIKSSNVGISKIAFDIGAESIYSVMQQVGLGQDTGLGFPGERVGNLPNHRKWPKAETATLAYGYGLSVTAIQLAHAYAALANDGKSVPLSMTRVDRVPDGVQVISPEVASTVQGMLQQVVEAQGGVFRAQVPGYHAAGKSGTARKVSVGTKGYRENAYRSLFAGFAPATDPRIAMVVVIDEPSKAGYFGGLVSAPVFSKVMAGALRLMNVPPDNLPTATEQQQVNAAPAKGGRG

Structure (SMILES): O=C(O)C[C@@H]1CC[C@H](NC(=O)Cc2cccs2)B(O)O1 [vaborbactam]
- IC50: 262 µM
